Measurements published in US8217167B2, “Phenanthrylphenol linked pyrrolo [2, l-c] [l, 4] benzodiazepine hybrids as potential antitumour agents and process for the preparation thereof” (Council of Scientific & Industrial Research, priority 2008, dated 2012).

Assays:
[1] = tested on: Non-small-cell-lung cancer cell lines; experiment: NCI in vitro anticancer activity (SRB assay), Non-small-cell-lung panel; format: cell-based; details: Homo sapiens
Description: (§1) The compound 6a was evaluated for in vitro anticancer activity against sixty human tumour cells derived from nine cancer panels (leukemia, non-small-cell lung, colon, CNS, melanoma, ovarian, prostate, renal and breast cancer) as shown in Table 4. For compound 6a, dose response curves for each cell line were measured at a minimum of five concentrations at 10 fold dilutions. A protocol of 48 h continuous drug exposure was used and a sulforhodamine B (SRB) protein assay was used to estimate cell viability or growth. The concentration causing 50% cell growth inhibition (GI50), total cell growth inhibition (TGI 0% growth) and 50% cell death (LC50, […]) compared with the control was calculated.
(§2) Each cancer type represents the average of six to nine different cancer cell lines.

CNS cancer cell lines = experiment: NCI in vitro anticancer activity (SRB assay), CNS panel; format: cell-based; details: Homo sapiens
Description: as §1, §2

[2] = tested on: Prostate cancer cell lines; experiment: NCI in vitro anticancer activity (SRB assay), Prostate panel; format: cell-based; details: Homo sapiens
Description: as §1, §2

Liver HEP-2 = format: cell-based; details: human
From the text: (§3) The compounds 6a-c (n=1-3) were examined for preliminary in vitro cytotoxicity on six cell lines, among these compound's 6a has shown promising activity as shown in Table 2 and was further taken up detailed in vitro anticancer activity at the National Cancer Institute, Maryland, USA.

Colon HCT-15 = format: cell-based; details: human
From the text: as §3

Ovary OVCAR-5 = format: cell-based; details: human
From the text: as §3

Lung A-549 = format: cell-based; details: human
From the text: as §3

Neuroblastoma IMR-32 = format: cell-based; details: human
From the text: as §3

Colon 502713 = format: cell-based; details: human
From the text: as §3

[3] = tested on: Melanoma cancer cell lines; experiment: NCI in vitro anticancer activity (SRB assay), Melanoma panel; format: cell-based; details: Homo sapiens
Description: as §1, §2

Colon cancer cell lines = experiment: NCI in vitro anticancer activity (SRB assay), Colon panel; format: cell-based; details: Homo sapiens
Description: as §1, §2

[4] = tested on: sixty human tumour cells derived from nine cancer panels; experiment: NCI in vitro anticancer activity (SRB assay), mean graph midpoints over sixty cell lines; format: cell-based
Description: as §1

[5] = tested on: Leukemia cancer cell lines; experiment: NCI in vitro anticancer activity (SRB assay), Leukemia panel; format: cell-based; details: Homo sapiens
Description: as §1, §2

[6] = tested on: duplex-form calf thymus DNA (CT-DNA); experiment: Thermal denaturation studies with calf thymus DNA; format: binding; details: [PBD]:[DNA] molar ratio 1:5, CT-DNA 100 μM, ligand 20 μM, sodium phosphate buffer pH 7.00; for ΔTm after incubation at 37° C. for 0 h: 0 h incubation at 37° C.; for ΔTm after incubation at 37° C. for 18 h: 18 h incubation at 37° C.
Description: Compounds have been subjected to thermal denaturation studies with duplex-form calf thymus DNA (CT-DNA) using a modification of a reported procedure (Newman, M. S. Carcinog-compr. Surv. 1976, 1, 203; (b) Hecht, S. S.; Loy, M.; Hoffman, Carcinog-compr. Surv. 1976, 1, 325). Working solutions in aqueous buffer (10 mM NaH2PO4/Na2HPO4, 1 mM Na2EDTA, pH 7.00+0.01) containing CT-DNA (100 μm in phosphate) and the PBD (20 μm) have been prepared by addition of concentrated PBD solutions in DMSO to obtain a fixed [PBD]/[DNA] molar ratio of 1:5. The DNA-PBD solutions have been incubated at 37° C. for 0 and 18 h prior to analysis. Samples have been monitored at 260 nm using a Beckman DU-800 spectrophotometer fitted with high performance temperature controller, and heated at 1° C. min^−1 in the 40-110° C. range. DNA helix→coil transition temperatures (Tm) have been obtained from the maxima in the d(A260)/dT derivative plots. Drug-induced alterations in DNA melting behavior are given by: ΔTm=Tm(DNA+PBD)−Tm(DNA alone), where the Tm value for the PBD-free CT-DNA is 69.1±0.01.
The DNA binding activity for these new C8-linked phenanthrylphenol-PBD hybrids has been examined by thermal denaturation studies using calf thymus (CT) DNA. […] The data for the compounds 6a-c is included in Table 1 for comparison.

[7] = tested on: Ovarian cancer cell lines; experiment: NCI in vitro anticancer activity (SRB assay), Ovarian panel; format: cell-based; details: Homo sapiens
Description: as §1, §2

Breast cancer cell lines = experiment: NCI in vitro anticancer activity (SRB assay), Breast panel; format: cell-based; details: Homo sapiens
Description: as §1, §2

Renal cancer cell lines = experiment: NCI in vitro anticancer activity (SRB assay), Renal panel; format: cell-based; details: Homo sapiens
Description: as §1, §2

[8] = 48 h, read-out: Log10 LC50 (concentration in mol/L causing 50% lethality) (converted)

## COc1cc2c(cc1OCCCOc1ccc(-c3cc4ccccc4c4ccccc34)cc1)N=C[C@@H]1CCCN1C2=O [Compound 6a, (11aS)-7-methoxy-8-3-[4-(9-phenanthryl)phenoxy]propoxy-2,3,5,11a-tetrahydro-1H-benzo[e]pyrrolo[1,2-a][1,4]diazepin-5-one]
[1]; [8]
  LC50: 5.37 µM
[1]; Non-small-cell-lung panel average, 48 h exposure, SRB, read-out: Log10 GI50 (concentration in mol/L) (converted)
  GI50: 0.776 µM
CNS cancer cell lines; [8]
  LC50: 4.68 µM
CNS cancer cell lines; CNS panel average, 48 h exposure, SRB, read-out: Log10 GI50 (concentration in mol/L) (converted)
  GI50: 0.813 µM
[2]; [8]
  LC50 (concentration causing 50% tumour cell death): 3.89 µM
[2]; Prostate panel average, 48 h exposure, SRB, read-out: Log10 GI50 (concentration in mol/L) (converted)
  GI50: 0.398 µM
Liver HEP-2
  Preliminary in vitro cytotoxicity data, Liver HEP-2: 58
Colon HCT-15
  Preliminary in vitro cytotoxicity data, Colon HCT-15: 99
Ovary OVCAR-5
  Preliminary in vitro cytotoxicity data, Ovary OVCAR-5: 98
Lung A-549
  Preliminary in vitro cytotoxicity data, Lung A-549: 88
Neuroblastoma IMR-32
  Preliminary in vitro cytotoxicity data, Neuroblastoma IMR-32: 85
Colon 502713
  Preliminary in vitro cytotoxicity data, Colon 502713: 69
[3]; [8]
  LC50: 4.68 µM
[3]; Melanoma panel average, 48 h exposure, SRB, read-out: Log10 GI50 (concentration in mol/L) (converted)
  GI50: 0.692 µM
Colon cancer cell lines; [8]
  CC50: 4.9 µM
Colon cancer cell lines; Colon panel average, 48 h exposure, SRB, read-out: Log10 GI50 (concentration in mol/L) (converted)
  GI50: 0.776 µM
[4]; 48 h continuous drug exposure, SRB assay, mean over human tumour cell lines
  Log10 TGI mean graph midpoint (MG_MID): −5.76
[4]; 48 h continuous drug exposure, SRB assay, mean over human tumour cell lines, read-out: Log10 GI50 mean graph midpoint (MG_MID) (converted)
  GI50: 0.525 µM
[4]; Homo sapiens, 48 h, read-out: Log10 LC50 mean graph midpoint (MG_MID) (converted)
  CC50: 5.5 µM
[5]; [8]
  CC50: 15.1 µM
[5]; Leukemia panel average, 48 h exposure, SRB, read-out: Log10 GI50 (concentration in mol/L) (converted)
  GI50: 0.195 µM
[6]
  ΔTm after incubation at 37° C. for 0 h: 1.0 °C
  ΔTm after incubation at 37° C. for 18 h: 1.8 °C
[7]; [8]
  CC50: 3.72 µM
[7]; Ovarian panel average, 48 h exposure, SRB, read-out: Log10 GI50 (concentration in mol/L) (converted)
  GI50: 0.501 µM
Breast cancer cell lines; [8]
  LC50 (50% lethal concentration): 8.71 µM
Breast cancer cell lines; Breast panel average, 48 h exposure, SRB, read-out: Log10 GI50 (concentration in mol/L) (converted)
  GI50: 0.339 µM
Renal cancer cell lines; [8]
  LC50 (50% lethal concentration): 3.63 µM
Renal cancer cell lines; Renal panel average, 48 h exposure, SRB, read-out: Log10 GI50 (concentration in mol/L) (converted)
  GI50: 0.49 µM

## COc1cc2c(cc1OCCCCOc1ccc(-c3cc4ccccc4c4ccccc34)cc1)N=C[C@@H]1CCCN1C2=O [Compound 6b, (11aS)-7-methoxy-8-4-[4-(9-phenanthryl)phenoxy]butoxy-2,3,5,11a-tetrahydro-1H-benzo[e]pyrrolo[1,2-a][1,4]diazepin-5-one]
Liver HEP-2
  Preliminary in vitro cytotoxicity data, Liver HEP-2: 49
Colon HCT-15
  Preliminary in vitro cytotoxicity data, Colon HCT-15: 77
Ovary OVCAR-5
  Preliminary in vitro cytotoxicity data, Ovary OVCAR-5: 93
Lung A-549
  Preliminary in vitro cytotoxicity data, Lung A-549: 50
Neuroblastoma IMR-32
  Preliminary in vitro cytotoxicity data, Neuroblastoma IMR-32: 67
Colon 502713
  Preliminary in vitro cytotoxicity data, Colon 502713: 72
[6]
  ΔTm after incubation at 37° C. for 0 h: 0.3 °C
  ΔTm after incubation at 37° C. for 18 h: 0.5 °C

## COc1cc2c(cc1OCCCCCOc1ccc(-c3cc4ccccc4c4ccccc34)cc1)N=C[C@@H]1CCCN1C2=O [Compound 6c, (11aS)-7-methoxy-8-(5-[4-(9-phenanthryl)phenoxy]pentyloxy)-2,3,5,11a-tetrahydro-1H-benzo[e]pyrrolo[1,2-a][1,4]diazepin-5-one]
Liver HEP-2
  Preliminary in vitro cytotoxicity data, Liver HEP-2: 65
Colon HCT-15
  Preliminary in vitro cytotoxicity data, Colon HCT-15: 79
Ovary OVCAR-5
  Preliminary in vitro cytotoxicity data, Ovary OVCAR-5: 98
Lung A-549
  Preliminary in vitro cytotoxicity data, Lung A-549: 36
Neuroblastoma IMR-32
  Preliminary in vitro cytotoxicity data, Neuroblastoma IMR-32: 73
Colon 502713
  Preliminary in vitro cytotoxicity data, Colon 502713: 74
[6]
  ΔTm after incubation at 37° C. for 0 h: 0.1 °C
  ΔTm after incubation at 37° C. for 18 h: 0.2 °C

## COc1cc2c(cc1O)N=CC1CCCN1C2=O (centres unmarked) [DC-81, reference compound]
[6]
  ΔTm after incubation at 37° C. for 0 h: 0.3 °C
  ΔTm after incubation at 37° C. for 18 h: 0.7 °C
